Assays:
cotton = test: Test C preemergence/postemergence greenhouse plant response rating 0 to 100; type: in vivo, Gossypium hirsutum
Procedure, shortened: (§1)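 Compounds in non-phytotoxic solvent went onto sandy loam before emergence (seeded one day earlier) or onto plants at the one-to-four leaf stage. Duck salad was treated via flood water (~2.5 cm, maintained) over silt loam.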

giant foxtail = test: as above; type: in vivo, Setaria faberii; settings: for Plant response rating, Giant foxtail: 125 g/ha, 0 to 100 scale
Procedure, shortened: as §1

lambsquarters = test: as above; type: in vivo, Chenopodium album; settings: for Plant response rating Lambsquarters: 125 g/ha, 0 to 100 scale
Procedure, shortened: as §1

pigweed = test: as above; type: in vivo, Amaranthusretroflexus; settings: for Plant response rating Pigweed: 125 g/ha, 0 to 100 scale
Procedure, shortened: as §1

soybean = test: as above; type: in vivo, Glycine max; settings: for Plant response rating, Soybean: 125 g/ha, 0 to 100 scale
Procedure, shortened: as §1

velvetleaf = test: as above; type: in vivo, Abutilon theophrasti; settings: for Plant response rating, Velvetleaf: 125 g/ha, 0 to 100 scale
Procedure, shortened: as §1

umbrella sedge = test: Test C flood test plant response rating 0 to 100; type: in vivo, Cyperus difformis
Procedure, shortened: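 Compounds in non-phytotoxic solvent applied preemergence to sandy loam one day after planting, postemergence at the 1–4 leaf stage, or to ~2.5 cm floodwater over silt loam.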

duck salad = test: Test C flood test plant response rating 0 to 100; type: in vivo, Heteranthera limosa
Procedure, shortened: as §1

[1] = POSTEMERGENCE section, flood test, Rate 2 g/ha
[2] = Rate 8 g/ha, under POSTEMERGENCE head (flood test species)
[3] = Rate 31 g/ha, under POSTEMERGENCE head (flood test species)
[4] = flood test species listed under POSTEMERGENCE, 125 g/ha, 0 to 100 scale

## COCOc1cc(-c2nn3c(c2Cl)CCCC3)c(F)cc1Cl [Compound 58]
cotton; Rate 8 g/ha, POSTEMERGENCE
  Plant response rating (0 to 100), Cotton: 100
cotton; Rate 8 g/ha, PREEMERGENCE
  Plant response rating (0 to 100), Cotton: 0
cotton; Rate 31 g/ha, POSTEMERGENCE
  Plant response rating (0 to 100), Cotton: 100
cotton; Rate 31 g/ha, PREEMERGENCE
  Plant response rating (0 to 100), Cotton: 10
Giant foxtail; POSTEMERGENCE
  Plant response rating, Giant foxtail: 100
Giant foxtail; POSTEMERGENCE, Rate 2 g/ha
  Plant response rating (0 to 100), Giant foxtail: 20
Giant foxtail; PREEMERGENCE
  Plant response rating, Giant foxtail: 100
Giant foxtail; PREEMERGENCE, Rate 2 g/ha
  Plant response rating (0 to 100), Giant foxtail: 0
Giant foxtail; Rate 8 g/ha, POSTEMERGENCE
  Plant response rating (0 to 100), Giant foxtail: 40
Giant foxtail; Rate 8 g/ha, PREEMERGENCE
  Plant response rating (0 to 100), Giant foxtail: 0
Giant foxtail; Rate 31 g/ha, POSTEMERGENCE
  Plant response rating (0 to 100), Giant foxtail: 70
Giant foxtail; Rate 31 g/ha, PREEMERGENCE
  Plant response rating (0 to 100), Giant foxtail: 60
lambsquarters; POSTEMERGENCE
  Plant response rating Lambsquarters: 100
lambsquarters; POSTEMERGENCE, Rate 2 g/ha
  Plant response rating (0 to 100), Lambsquarters: 50
lambsquarters; PREEMERGENCE
  Plant response rating Lambsquarters: 100
lambsquarters; PREEMERGENCE, Rate 2 g/ha
  Plant response rating (0 to 100), Lambsquarters: 0
lambsquarters; Rate 8 g/ha, POSTEMERGENCE
  Plant response rating (0 to 100), Lambsquarters: 85
lambsquarters; Rate 8 g/ha, PREEMERGENCE
  Plant response rating (0 to 100), Lambsquarters: 100
lambsquarters; Rate 31 g/ha, POSTEMERGENCE
  Plant response rating (0 to 100), Lambsquarters: 100
lambsquarters; Rate 31 g/ha, PREEMERGENCE
  Plant response rating (0 to 100), Lambsquarters: 100
pigweed; POSTEMERGENCE
  Plant response rating Pigweed: 100
pigweed; POSTEMERGENCE, Rate 2 g/ha
  Plant response rating (0 to 100), Pigweed: 90
pigweed; PREEMERGENCE
  Plant response rating Pigweed: 100
pigweed; PREEMERGENCE, Rate 2 g/ha
  Plant response rating (0 to 100), Pigweed: 0
pigweed; Rate 8 g/ha, POSTEMERGENCE
  Plant response rating (0 to 100), Pigweed: 100
pigweed; Rate 8 g/ha, PREEMERGENCE
  Plant response rating (0 to 100), Pigweed: 100
pigweed; Rate 31 g/ha, POSTEMERGENCE
  Plant response rating (0 to 100), Pigweed: 100
pigweed; Rate 31 g/ha, PREEMERGENCE
  Plant response rating (0 to 100), Pigweed: 100
soybean; POSTEMERGENCE
  Plant response rating, Soybean: 85
soybean; POSTEMERGENCE, Rate 2 g/ha
  Plant response rating (0 to 100), Soybean: 50
soybean; PREEMERGENCE
  Plant response rating, Soybean: 0
soybean; PREEMERGENCE, Rate 2 g/ha
  Plant response rating (0 to 100), Soybean: 0
soybean; Rate 8 g/ha, POSTEMERGENCE
  Plant response rating (0 to 100), Soybean: 50
soybean; Rate 8 g/ha, PREEMERGENCE
  Plant response rating (0 to 100), Soybean: 0
soybean; Rate 31 g/ha, POSTEMERGENCE
  Plant response rating (0 to 100), Soybean: 70
soybean; Rate 31 g/ha, PREEMERGENCE
  Plant response rating (0 to 100), Soybean: 0
velvetleaf; POSTEMERGENCE
  Plant response rating, Velvetleaf: 100
velvetleaf; POSTEMERGENCE, Rate 2 g/ha
  Plant response rating (0 to 100), Velvetleaf: 40
velvetleaf; PREEMERGENCE
  Plant response rating, Velvetleaf: 100
velvetleaf; PREEMERGENCE, Rate 2 g/ha
  Plant response rating (0 to 100), Velvetleaf: 0
velvetleaf; Rate 8 g/ha, POSTEMERGENCE
  Plant response rating (0 to 100), Velvetleaf: 75
velvetleaf; Rate 8 g/ha, PREEMERGENCE
  Plant response rating (0 to 100), Velvetleaf: 40
velvetleaf; Rate 31 g/ha, POSTEMERGENCE
  Plant response rating (0 to 100), Velvetleaf: 80
velvetleaf; Rate 31 g/ha, PREEMERGENCE
  Plant response rating (0 to 100), Velvetleaf: 100
Umbrella sedge; [1]
  Plant response rating (0 to 100), Umbrella sedge: 25
Umbrella sedge; [2]
  Plant response rating (0 to 100), Umbrella sedge: 30
Umbrella sedge; [3]
  Plant response rating (0 to 100), Umbrella sedge: 70
Umbrella sedge; [4]
  Plant response rating Umbrella sedge: 100
Duck salad; [1]
  Plant response rating (0 to 100), Duck salad: 0
Duck salad; [2]
  Plant response rating (0 to 100), Duck salad: 20
Duck salad; [3]
  Plant response rating (0 to 100), Duck salad: 80
Duck salad; [4]
  Plant response rating Duck salad: 85

— patent publication US6358885B1, “Substituted phenylheterocyclic herbicides” (Mississippi State University, priority 1992, dated 2002)
